Laboratory results: US20260242419A1, “A CYCLIC PEPTIDE FOR TRAPPING INTERLEUKIN-1 BETA” (Merck Sharp & Dohme LLC, priority 2023, published 2026)
Starred links: 1 amine or outer side, 2 acyl side, 3 side chain; linkers in the order of their positions; H or OH if unused. Non-standard residues stand in square brackets, D forms with d. Residues, ends and D or L forms follow the SMILES beside them. dPro(4R-(4-pyridylmethyl)) = O=C(O)[C@H]1C[C@@H](Cc2ccncc2)CN1; X49 = Nc1cnc(-c2ccc(C[C@H]3CCN([*:1])[C@H]3C(=O)[*:2])cc2)cn1; Trp(βS-Me,4-F) = C[C@@H](c1c[nH]c2cccc(F)c12)[C@H](N)C(=O)O; Bip(4'-COOH) = N[C@@H](Cc1ccc(-c2ccc(C(=O)O)cc2)cc1)C(=O)O; Ala(1-bicyclo(1.1.1)pentyl) = N[C@@H](CC12CC(C1)C2)C(=O)O; dPro(4R-Bzl(4-F)) = O=C(O)[C@H]1C[C@@H](Cc2ccc(F)cc2)CN1; 1Nal(3S-Me) = C[C@@H](c1cccc2ccccc12)[C@H](N)C(=O)O; X4 = O=C([C@H]1[C@@H](Cc2ccncc2)CCN1[*:1])[*:2]; Ala(morpholin-4-yl) = N[C@@H](CN1CCOCC1)C(=O)O; Ala(piperazin-1-yl) = N[C@@H](CN1CCNCC1)C(=O)O; Ala(pyrimidin-5-yl) = N[C@@H](Cc1cncnc1)C(=O)O; Phe(4-COOH) = N[C@@H](Cc1ccc(C(=O)O)cc1)C(=O)O; Bip = N[C@@H](Cc1ccc(-c2ccccc2)cc1)C(=O)O; Pro(cis-4-F) = O=C(O)[C@@H]1C[C@H](F)CN1; d(αMeD) = C[C@@](N)(CC(=O)O)C(=O)O; 4Pal = N[C@@H](Cc1ccncc1)C(=O)O; aThr = C[C@H](O)[C@H](N)C(=O)O; d(αMeS) = C[C@@](N)(CO)C(=O)O; Api = NC1(C(=O)O)CCNCC1; Dab = NCC[C@H](N)C(=O)O; Aib = CC(C)(N)C(=O)O

target: T1, IL-1β (Homo sapiens, UniProt P01584); test: IL-6 assay in MRC5 cells: inhibition of IL-1β induced IL-6 secretion (AlphaLISA); format: cell-based; details: inhibition of IL-1β induced IL-6 secretion in MRC5 cells; compound pre-incubated 1 hour with recombinant human IL-1β; read-out: MRC5 IC50
T1 construct: purchased BioLegend 579404
T1 sequence (P01584 117-269): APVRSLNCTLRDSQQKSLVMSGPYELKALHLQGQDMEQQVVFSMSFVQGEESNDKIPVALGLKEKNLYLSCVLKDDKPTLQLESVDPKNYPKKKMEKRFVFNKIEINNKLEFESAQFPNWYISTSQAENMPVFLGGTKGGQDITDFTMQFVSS
Outline: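 Compound was pre-incubated 1 h at ambient temperature with recombinant human IL-1β at 2λ EC80 before adding human lung fibroblast MRC5 cells (3000/well) in EMEM with 0.025% BSA. After overnight culture at 37 °C, 5% CO2, secreted IL-6 in conditioned medium was measured by AlphaLISA; IC50 from 4-parameter logistic fits.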

IC50	SMILES
0.018 nM	C[C@@H](c1cccc2ccccc12)[C@@H]1NC(=O)[C@@H]2C[C@H](F)CN2C(=O)CNC(=O)[C@H](Cc2ccc(C(=O)O)cc2)NC(=O)[C@H](Cc2ccncc2)NC(=O)[C@H](Cc2ccc(-c3ccccc3)cc2)NC(=O)[C@H]2C[C@@H](Cc3ccncc3)CN2C(=O)CNC(=O)[C@H](CCN)NC(=O)[C@H](CCC(N)=O)NC(=O)[C@H](Cc2cncnc2)NC(=O)[C@@](C)(CC(=O)O)NC(=O)[C@H](Cc2c[nH]c3ccccc23)NC(=O)[C@H](CO)NC(=O)C(C)(C)NC1=O [Example 291] (cyclo([Bip][4Pal][Phe(4-COOH)]G[Pro(cis-4-F)][1Nal(3S-Me)][Aib]SW[d(αMeD)][Ala(pyrimidin-5-yl)]Q[Dab]G[dPro(4R-(4-pyridylmethyl))]))
0.017 nM	COC[C@@]1(C)NC(=O)[C@H](Cc2c[nH]c3ccccc23)NC(=O)[C@H](CO)NC(=O)C(C)(C)NC(=O)[C@H]([C@@H](C)c2c[nH]c3cccc(F)c23)NC(=O)[C@@H]2C[C@H](F)CN2C(=O)CNC(=O)[C@H](Cc2ccc(C(=O)O)cc2)NC(=O)[C@H](Cc2ccncc2)NC(=O)[C@H](Cc2ccc(-c3ccc(C(=O)O)cc3)cc2)NC(=O)[C@H]2C[C@@H](Cc3ccncc3)CN2C(=O)CNC(=O)[C@H](CCN)NC(=O)[C@H](CCC(N)=O)NC(=O)[C@H]([C@H](C)O)NC1=O [Example 261] (cyclo([Bip(4'-COOH)][4Pal][Phe(4-COOH)]G[Pro(cis-4-F)][Trp(βS-Me,4-F)][Aib]SW[d(αMeS)](Me)[aThr]Q[Dab]G[dPro(4R-(4-pyridylmethyl))]))

same assay, conditions: inhibition of IL-1β induced IL-6 secretion in MRC5 cells; read-out: MRC5 IC50

SMILES	IC50
C[C@@H](c1c[nH]c2cccc(F)c12)[C@@H]1NC(=O)[C@@H]2C[C@H](F)CN2C(=O)CNC(=O)[C@H](Cc2ccc(C(=O)O)cc2)NC(=O)[C@H](Cc2ccncc2)NC(=O)[C@H](Cc2ccc(-c3ccc(C(=O)O)cc3)cc2)NC(=O)[C@H]2C[C@@H](Cc3ccc(F)cc3)CN2C(=O)CNC(=O)[C@H](CCN)NC(=O)[C@H](CCC(N)=O)NC(=O)[C@H](Cc2cncnc2)NC(=O)C2(CCNCC2)NC(=O)[C@H](Cc2c[nH]c3ccccc23)NC(=O)[C@H](CCC(=O)O)NC(=O)C(C)(C)NC1=O [Example 65] (cyclo([Bip(4'-COOH)][4Pal][Phe(4-COOH)]G[Pro(cis-4-F)][Trp(βS-Me,4-F)][Aib]EW[Api][Ala(pyrimidin-5-yl)]Q[Dab]G[dPro(4R-Bzl(4-F))]))	0.025 nM
C[C@@H](c1cccc2ccccc12)[C@@H]1NC(=O)[C@@H]2C[C@H](F)CN2C(=O)CNC(=O)[C@H](Cc2ccc(C(=O)O)cc2)NC(=O)[C@H](Cc2ccncc2)NC(=O)[C@H](Cc2ccc(-c3ccc(C(=O)O)cc3)cc2)NC(=O)[C@H]2C[C@@H](Cc3ccc(F)cc3)CN2C(=O)CNC(=O)[C@H](CCN)NC(=O)[C@H](CCC(N)=O)NC(=O)[C@H](Cc2cncnc2)NC(=O)C(C)(C)NC(=O)[C@H](Cc2c[nH]c3ccccc23)NC(=O)[C@H](CCC(=O)O)NC(=O)C(C)(C)NC1=O [Example 149] (cyclo([Bip(4'-COOH)][4Pal][Phe(4-COOH)]G[Pro(cis-4-F)][1Nal(3S-Me)][Aib]EW[Aib][Ala(pyrimidin-5-yl)]Q[Dab]G[dPro(4R-Bzl(4-F))]))	0.024 nM

Further lines, results first:

IC50	SMILES
0.015 nM	C[C@@H](c1c[nH]c2cccc(F)c12)[C@@H]1NC(=O)[C@@H]2C[C@H](F)CN2C(=O)CNC(=O)[C@H](Cc2ccc(C(=O)O)cc2)NC(=O)[C@H](CC23CC(C2)C3)NC(=O)[C@H](Cc2ccc(-c3ccc(C(=O)O)cc3)cc2)NC(=O)[C@H]2C[C@@H](Cc3ccc(F)cc3)CN2C(=O)CNC(=O)[C@H](CCN)NC(=O)[C@H](CCC(N)=O)NC(=O)[C@H](CN2CCOCC2)NC(=O)[C@@](C)(CO)NC(=O)[C@H](Cc2c[nH]c3ccccc23)NC(=O)[C@H](CO)NC(=O)C(C)(C)NC1=O [Example 170] (cyclo([Bip(4'-COOH)][Ala(1-bicyclo(1.1.1)pentyl)][Phe(4-COOH)]G[Pro(cis-4-F)][Trp(βS-Me,4-F)][Aib]SW[d(αMeS)][Ala(morpholin-4-yl)]Q[Dab]G[dPro(4R-Bzl(4-F))]))
0.018 nM	C[C@@H](c1c[nH]c2cccc(F)c12)[C@@H]1NC(=O)[C@@H]2C[C@H](F)CN2C(=O)CNC(=O)[C@H](Cc2ccc(C(=O)O)cc2)NC(=O)[C@H](CC23CC(C2)C3)NC(=O)[C@H](Cc2ccc(-c3ccc(C(=O)O)cc3)cc2)NC(=O)[C@H]2C[C@@H](Cc3ccc(F)cc3)CN2C(=O)CNC(=O)[C@H](CCN)NC(=O)[C@H](CCC(N)=O)NC(=O)[C@H](CN2CCNCC2)NC(=O)C(C)(C)NC(=O)[C@H](Cc2c[nH]c3ccccc23)NC(=O)[C@H](CO)NC(=O)C(C)(C)NC1=O [Example 168] (cyclo([Bip(4'-COOH)][Ala(1-bicyclo(1.1.1)pentyl)][Phe(4-COOH)]G[Pro(cis-4-F)][Trp(βS-Me,4-F)][Aib]SW[Aib][Ala(piperazin-1-yl)]Q[Dab]G[dPro(4R-Bzl(4-F))]))
0.019 nM	C[C@@H](c1c[nH]c2cccc(F)c12)[C@@H]1NC(=O)[C@@H]2C[C@H](F)CN2C(=O)CNC(=O)[C@H](Cc2ccc(C(=O)O)cc2)NC(=O)[C@H](Cc2ccncc2)NC(=O)[C@H](Cc2ccc(-c3ccc(C(=O)O)cc3)cc2)NC(=O)[C@H]2[C@@H](Cc3ccc(-c4cnc(N)cn4)cc3)CCN2C(=O)CNC(=O)[C@H](CCN)NC(=O)[C@H](CCC(N)=O)NC(=O)[C@H](Cc2cncnc2)NC(=O)C(C)(C)NC(=O)[C@H](Cc2c[nH]c3ccccc23)NC(=O)[C@H](CCC(=O)O)NC(=O)C(C)(C)NC1=O [Example 57] (cyclo([Bip(4'-COOH)][4Pal][Phe(4-COOH)]G[Pro(cis-4-F)][Trp(βS-Me,4-F)][Aib]EW[Aib][Ala(pyrimidin-5-yl)]Q[Dab]G[X49]))
0.022 nM	C[C@@H](c1c[nH]c2cccc(F)c12)[C@@H]1NC(=O)[C@@H]2C[C@H](F)CN2C(=O)CNC(=O)[C@H](Cc2ccc(C(=O)O)cc2)NC(=O)[C@H](Cc2ccncc2)NC(=O)[C@H](Cc2ccc(-c3ccccc3)cc2)NC(=O)[C@H]2C[C@@H](Cc3ccncc3)CN2C(=O)CNC(=O)[C@H](CCN)NC(=O)[C@H](CCC(N)=O)NC(=O)[C@H](Cc2cncnc2)NC(=O)[C@@](C)(CC(=O)O)NC(=O)[C@H](Cc2c[nH]c3ccccc23)NC(=O)[C@H](CO)NC(=O)C(C)(C)NC1=O [Example 333] (cyclo([Bip][4Pal][Phe(4-COOH)]G[Pro(cis-4-F)][Trp(βS-Me,4-F)][Aib]SW[d(αMeD)][Ala(pyrimidin-5-yl)]Q[Dab]G[dPro(4R-(4-pyridylmethyl))]))
0.008 nM	C[C@@H](c1c[nH]c2cccc(F)c12)[C@@H]1NC(=O)[C@@H]2C[C@H](F)CN2C(=O)CNC(=O)[C@H](Cc2ccc(C(=O)O)cc2)NC(=O)[C@H](Cc2ccncc2)NC(=O)[C@H](Cc2ccc(-c3ccc(C(=O)O)cc3)cc2)NC(=O)[C@H]2[C@@H](Cc3ccncc3)CCN2C(=O)CNC(=O)[C@H](CCN)NC(=O)[C@H](CCC(N)=O)NC(=O)[C@H](Cc2cncnc2)NC(=O)[C@@](C)(CC(=O)O)NC(=O)[C@H](Cc2c[nH]c3ccccc23)NC(=O)[C@H](CO)NC(=O)C(C)(C)NC1=O [Example 328] (cyclo([Bip(4'-COOH)][4Pal][Phe(4-COOH)]G[Pro(cis-4-F)][Trp(βS-Me,4-F)][Aib]SW[d(αMeD)][Ala(pyrimidin-5-yl)]Q[Dab]G[X4]))
